ChEMBL document CHEMBL1136034, “Selective urokinase-type plasminogen activator (uPA) inhibitors. Part 1: 2-Pyridinylguanidines” (Bioorg Med Chem Lett, 2002)

Legend:
Plasminogen [1] = molecular target: T1, Plasminogen (Homo sapiens, UniProt P00747); experiment: Inhibition of human plasmin with Chromozym-PL at 1 mM
[2] = molecular target: T2, Tissue-type plasminogen activator (Homo sapiens, UniProt P00750); experiment: Inhibition of human tissue plasminogen activator stimulator at 1 mM
Target sequence in this assay (P00750 36-562 limits assumed): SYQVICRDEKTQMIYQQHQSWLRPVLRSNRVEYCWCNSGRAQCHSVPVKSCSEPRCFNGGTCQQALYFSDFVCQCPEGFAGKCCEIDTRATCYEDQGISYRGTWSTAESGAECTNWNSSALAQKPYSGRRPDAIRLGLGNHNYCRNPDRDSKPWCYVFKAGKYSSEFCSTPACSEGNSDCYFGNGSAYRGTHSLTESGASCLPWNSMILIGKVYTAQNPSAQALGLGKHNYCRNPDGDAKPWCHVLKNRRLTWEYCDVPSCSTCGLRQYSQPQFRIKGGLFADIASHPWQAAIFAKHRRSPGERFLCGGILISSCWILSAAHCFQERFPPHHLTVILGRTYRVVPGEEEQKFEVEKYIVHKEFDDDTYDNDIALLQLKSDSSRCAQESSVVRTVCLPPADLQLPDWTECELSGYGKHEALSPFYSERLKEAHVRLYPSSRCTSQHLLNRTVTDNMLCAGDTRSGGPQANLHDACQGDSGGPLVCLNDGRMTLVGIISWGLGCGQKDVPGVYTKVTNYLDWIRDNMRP

[3] = molecular target: T3, Urokinase-type plasminogen activator (Homo sapiens, UniProt P00749); experiment: In vitro inhibition of HWMT human urokinase Plasminogen activator.
[4] = molecular target: T2, Tissue-type plasminogen activator; experiment: Ability to inhibit human tissue plasminogen activator stimulator
Target sequence in this assay (P00750 whole entry): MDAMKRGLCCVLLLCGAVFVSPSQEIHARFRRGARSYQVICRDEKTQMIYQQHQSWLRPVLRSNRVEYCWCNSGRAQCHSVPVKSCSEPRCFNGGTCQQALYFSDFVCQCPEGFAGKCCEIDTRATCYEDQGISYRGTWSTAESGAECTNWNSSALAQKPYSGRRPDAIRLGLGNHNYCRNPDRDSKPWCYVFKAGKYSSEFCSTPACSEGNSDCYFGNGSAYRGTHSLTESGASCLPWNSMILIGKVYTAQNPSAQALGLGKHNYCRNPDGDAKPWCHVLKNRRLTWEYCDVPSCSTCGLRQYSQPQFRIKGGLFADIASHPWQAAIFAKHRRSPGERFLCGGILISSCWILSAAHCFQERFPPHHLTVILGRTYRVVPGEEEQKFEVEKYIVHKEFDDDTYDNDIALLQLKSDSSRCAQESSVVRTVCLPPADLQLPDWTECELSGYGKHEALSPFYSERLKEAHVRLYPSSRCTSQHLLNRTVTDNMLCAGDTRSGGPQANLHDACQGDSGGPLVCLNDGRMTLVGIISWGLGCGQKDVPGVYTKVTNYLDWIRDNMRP

[5] = molecular target: T2, Tissue-type plasminogen activator; experiment: Ability to inhibit human tissue plasminogen activator stimulator at concentration of 1 uM
Target sequence in this assay (P00750 36-562 limits assumed): as the sequence (P00750 36-562 limits assumed) above

[6] = molecular target: T3, Urokinase-type plasminogen activator; experiment: Ability to inhibit microPa (calbiochem) and S-2444 (quadratech) as substrate at concentration of 1 uM
Plasminogen [7] = molecular target: T1, Plasminogen; experiment: Ability to inhibit human plasmin using Chromozym-PL as substrate at concentration of 1 uM
[8] = molecular target: T2, Tissue-type plasminogen activator; experiment: Ability to inhibit human tissue plasminogen activator stimulator at concentration of 1 mM
Target sequence in this assay (P00750 36-562 limits assumed): as above

Plasminogen [9] = molecular target: T1, Plasminogen; experiment: Ability to inhibit human plasmin using Chromozym-PL as substrate
Plasminogen [10] = molecular target: T1, Plasminogen; experiment: Ability to inhibit human plasmin using Chromozym-PL as substrate at concentration of 30 uM
[11] = molecular target: T2, Tissue-type plasminogen activator; experiment: Ability to inhibit human tissue plasminogen activator stimulator at concentration of 100 uM
Target sequence in this assay (P00750 36-562 limits assumed): as above

[12] = molecular target: T3, Urokinase-type plasminogen activator; experiment: Ability to inhibit microPa (calbiochem) and S-2444 (quadratech) as substrate at concentration of 100 uM
[13] = molecular target: T2, Tissue-type plasminogen activator; experiment: Ability to inhibit human tissue plasminogen activator stimulator at concentration of 30 uM
Target sequence in this assay (P00750 36-562 limits assumed): as above

[14] = molecular target: T3, Urokinase-type plasminogen activator; experiment: Ability to inhibit microPa (calbiochem) and S-2444 (quadratech) as substrate at concentration of 30 uM

T1 sequence (P00747 97-580 limits assumed): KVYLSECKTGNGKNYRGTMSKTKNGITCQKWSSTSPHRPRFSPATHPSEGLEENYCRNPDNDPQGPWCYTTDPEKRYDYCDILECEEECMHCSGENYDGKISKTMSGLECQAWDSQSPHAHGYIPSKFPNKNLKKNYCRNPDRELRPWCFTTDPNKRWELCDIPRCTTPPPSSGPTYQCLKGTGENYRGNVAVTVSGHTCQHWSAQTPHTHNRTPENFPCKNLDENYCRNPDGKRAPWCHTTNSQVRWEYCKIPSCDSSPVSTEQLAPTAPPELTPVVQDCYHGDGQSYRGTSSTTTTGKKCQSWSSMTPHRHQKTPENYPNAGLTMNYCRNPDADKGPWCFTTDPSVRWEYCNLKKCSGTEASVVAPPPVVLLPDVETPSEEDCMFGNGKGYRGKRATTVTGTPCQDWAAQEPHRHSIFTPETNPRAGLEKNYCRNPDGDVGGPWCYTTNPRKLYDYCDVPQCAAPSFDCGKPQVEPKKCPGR
T1 sequence (P00747 581-810 limits assumed): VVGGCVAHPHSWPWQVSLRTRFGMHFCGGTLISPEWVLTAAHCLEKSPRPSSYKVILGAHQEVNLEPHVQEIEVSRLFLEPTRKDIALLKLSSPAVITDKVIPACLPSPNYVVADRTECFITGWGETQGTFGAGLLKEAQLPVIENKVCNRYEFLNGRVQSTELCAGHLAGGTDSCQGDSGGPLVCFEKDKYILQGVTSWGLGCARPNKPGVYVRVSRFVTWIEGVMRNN

inhibition (Plasminogen [1]) [%] | inhibition [2] [%] | Ki [3] [µM] | Compound | other results
< 50 | < 50 |  | N=C(N)Nc1ncc(Cl)cc1Cl | 
< 50 | < 50 |  | N=C(N)Nc1ncc(C(F)(F)F)cc1Cl | 
< 50 |  |  | N=C(N)Nc1ncc(Cl)cc1Br | 
< 50 | < 50 | 173 | Cc1cccc(N=C(N)N)n1 | 
 |  |  | NC(N)=Nc1ncc(Cl)cc1Br | Ki [4]: 272 µM
< 50 | < 50 |  | N=C(N)Nc1ncccc1O | 
 | < 50 | 32.3 | Cc1ccc(NC(=N)N)nc1 | 
 |  |  | N=C(N)Nc1cccnc1 | inhibition [5]: < 50%; inhibition [6]: < 50%; inhibition (Plasminogen [7]): < 50%
 |  | 2.9 | NC(N)=Nc1ncc(Br)cc1Cl | 
< 50 |  | 83.8 | Cc1ccnc(NC(=N)N)c1 | inhibition [8]: < 50%
 | < 50 |  | COc1cccnc1N=C(N)N | Ki (Plasminogen [9]): < 232 µM
< 50 | < 50 | 3.13 | N=C(N)Nc1ccc(Br)cn1 | 
 |  |  | N=C(N)Nc1cccnn1 | inhibition (Plasminogen [10]): < 50%; inhibition [11]: < 50%; inhibition [12]: < 50%
 |  | 147 | NC(N)=Nc1ncccc1O | 
 |  | 29.5 | N=C(N)Nc1ccccn1 | inhibition [5]: < 50%; inhibition (Plasminogen [7]): < 50%
< 50 | < 50 |  | N=C(N)Nc1ccc(Cl)cn1 | 
 |  |  | N=C(N)Nc1ccncc1 | Ki (Plasminogen [9]): 16.9 µM; inhibition [13]: < 50%; inhibition [14]: < 50%
 |  |  | N=C(N)Nc1ccc(Cl)cc1 | Ki (Plasminogen [9]): < 50 µM; inhibition [8]: < 50%
< 50 | < 50 |  | N=C(N)Nc1ncc(Br)cc1Cl | 
 | < 50 |  | Cc1c(Cl)cnc(N=C(N)N)c1Cl | Ki (Plasminogen [9]): 176 µM
 |  | 292 | N=C(N)Nc1ncccn1 | inhibition [5]: < 50%; inhibition (Plasminogen [7]): < 50%
< 50 | 54 |  | N=C(N)Nc1cc(-c2ccccc2)ccn1 | 
 |  |  | N=C(N)Nc1ccncn1 | inhibition [5]: < 50%; inhibition [6]: < 50%; inhibition (Plasminogen [7]): < 50%
< 50 |  | 37.7 | Cc1cccnc1N=C(N)N | inhibition [8]: < 50%
 |  | 5.47 | NC(N)=Nc1ncc(Cl)cc1Cl | 
< 50 | < 50 |  | COc1ccnc(NC(=N)N)c1 | 
 |  |  | N=C(N)Nc1cnccn1 | inhibition [5]: < 50%; inhibition [6]: < 50%; inhibition (Plasminogen [7]): < 50%
